Measured values as given in paper PMC12642047, “Marine-derived Acremonium strain prioritization using untargeted metabolomics approach for the identification of cytotoxic cyclic depsipeptides” (BMC Biotechnology, 2025).
Where two headings read alike, the source gives them in different places. *1 amine or outer side, *2 acyl side, *3 side chain or, on linkers, in order; H or OH if unused. Where a SMILES comes first, the peptide text is derived from it. [ ]: non-standard residue; d: D form. ξ: configuration not given here. Pentanoyl(2-O,4-OH,5-Cl) = O=C(O)C(O)CC(O)CCl; NMeI = CC[CH](C)[CH](NC)C(=O)O; X1 = CC1CCN([*:1])C1C(=O)[*:2]; ξLac(3-iPr) = CC(C)CC(O)C(=O)O; NMeA = CN[CH](C)C(=O)O; βAla = NCCC(=O)O

Assays:
[1] = tested on: A2058 (human melanoma); assay: MTS cytotoxicity assay (CellTiter 96 AQueous One), compounds, 72 h; assay type: cell-based; details: A2058 cells
Method: (§1) Compounds 1 − 5 were tested for their cytotoxic effects against several cancer cell lines, including MOLM-13 (acute myeloid leukemia), MV-4-11 (biphenotypic B myelomonocytic leukemia), THP-1 (acute monocytic leukemia), A2058 (human melanoma), MCF7 (human breast adenocarcinoma), and non-cancerous MRC-5 (normal lung fibroblast) using an MTS based CellTiter 96® AQueous One Solution Assay. In short, the cells were cultured in appropriate media supplemented with 10% fetal bovine serum (FBS): MOLM-13, MV-4-11 cells in RPMI medium, THP-1 cells in RPMI medium with ultra-low endotoxin FBS, MCF7 and MRC-5 in MEM Eagle medium along with other amino acid supplements, and A2058 cells in DMEM medium. After harvesting, they were seeded into 96-well plates. The cells were then treated with the test compounds at various concentrations and incubated for 72 h. Following the incubation period, an MTS assay was conducted, and the absorbance of the solution was measured using a microplate reader spectrophotometer (Tecan spark plate reader) at a wavelength of 490 nm. The half-maximum inhibitory concentration (IC50) values were calculated using the drc_3.0–1 package in R (Supplementary page S60-S61). DMSO (10%) was used as the positive control, and cell culture media as the negative control. All samples were tested in triplicate.
(§2) The results were plotted in a dose-response curve as shown in Figure S97 and the half-maximum inhibitory concentration (IC50) values were calculated using R. A 4-parameter logistic (4PL) dose-response model was applied to analyse the relationship between the concentration and the observed response (absorbance at 490 nm). […] The model was fitted to the experimental data using the drm function from the drc_3.0-1 package in R and IC50 values were determined as the concentration (μM) corresponding to 50% cell survival.

[2] = tested on: MCF7 (human breast adenocarcinoma); assay: as above; assay type: cell-based; details: MCF7 cells
Method: as §1, §2

[3] = tested on: MOLM-13 (acute myeloid leukemia); assay: as above; assay type: cell-based; details: Homo sapiens, MOLM-13 cells
Method: as §1, §2

[4] = tested on: MRC-5 (normal lung fibroblast); assay: as above; assay type: cell-based; details: Homo sapiens, MRC5, MRC-5 normal lung fibroblasts
Method: as §1, §2

[5] = tested on: MV-4-11 (biphenotypic B myelomonocytic leukemia); assay: as above; assay type: cell-based; details: Homo sapiens, MV4-11, MV-4-11 cells
Method: as §1, §2

[6] = tested on: THP-1 (acute monocytic leukemia); assay: as above; assay type: cell-based; details: Homo sapiens, THP-1 cells
Method: as §1, §2

[7] = tested on: erythropoietin gene expression; set-up: method as in PMID 9514014; details: cited from earlier work
[8] = tested on: MCF7; set-up: method as in PMID 30572686; details: read-out: IC50 MCF7 (previously reported), cited from earlier work
[9] = tested on: HL-60 (acute promyelocytic leukemia); set-up: method as in PMID 30572686; details: HL-60 cells; read-out: IC50 HL-60 (previously reported); cited from earlier work
[10] = tested on: insects; set-up: method as in doi:10.1021/np9601216; details: cited from earlier work
[11] = tested on: PDGF-BB/PDGFR-ββ signalling; set-up: method as in PMID 27322468; details: cited from earlier work
[12] = tested on: plants; details: cited from earlier work

Compound	IC50 [1]	IC50 [2]	IC50 [3]	IC50 [4]	IC50 [5]	IC50 [6]	Erythropoietin gene expression [7]	IC50 ([1]; value marked * expressed in nM)	IC50 ([2]; value marked * expressed in nM)	IC50 ([8]; MCF7 cell line)	IC50 ([8]; MCF7 cells)	IC50 [9]	Entomopathogenic activity [10]	Inhibition of PDGF-BB/PDGFR-ββ signalling [11]	Phytotoxic activity [12]
CCC(C)C1NC(=O)C2CCCN2C(=O)C(CC(O)CCl)OC(=O)CCNC(=O)C(C)N(C)C(=O)C(C(C)CC)N(C)C1=O (stereo not shown) [Compound 1, destruxin-A4 chlorohydrin] (cyclo([Pentanoyl(2-O,4-OH,5-Cl)]PI[NMeI][NMeA][βAla]); configuration not given here)	1100 nM	800 nM	400 nM	2200 nM	700 nM	2200 nM	induced erythropoietin gene expression								
CCC(C)C1NC(=O)C2C(C)CCN2C(=O)C(CC(O)CCl)OC(=O)CCNC(=O)C(C)N(C)C(=O)C(C(C)CC)N(C)C1=O (stereo not shown) [Compound 2, trichomide D] (cyclo([X1]I[NMeI][NMeA][βAla][Pentanoyl(2-O,4-OH,5-Cl)]); configuration not given here)			500 nM	1200 nM	800 nM	2100 nM		40 nM	40 nM	79 nM	79 nM	107 nM			
C=CCC1OC(=O)CCNC(=O)C(C)N(C)C(=O)C(C(C)CC)N(C)C(=O)C(C(C)CC)NC(=O)C2C(C)CCN2C1=O (stereo not shown) [Compound 3, destruxin-A5]	6600 nM	5200 nM	3000 nM	15200 nM	7200 nM	8700 nM							entomopathogenic activity	selectively inhibit	
CCC(C)C1NC(=O)C2CCCN2C(=O)C(CC(C)C)OC(=O)CCNC(=O)C(C)N(C)C(=O)C(C(C)CC)N(C)C1=O (stereo not shown) [Compound 4, homodestruxin B] (cyclo([ξLac(3-iPr)]PI[NMeI][NMeA][βAla]); configuration not given here)	30200 nM	12300 nM	5500 nM	> 40000 nM	14600 nM	16200 nM									phytotoxic activity
CCC(C)C1NC(=O)C2C(C)CCN2C(=O)C(CC(C)C)OC(=O)CCNC(=O)C(C)N(C)C(=O)C(C(C)CC)N(C)C1=O (stereo not shown) [Compound 5, homodestcardin] (cyclo([X1]I[NMeI][NMeA][βAla][ξLac(3-iPr)]); configuration not given here)	2600 nM	2100 nM	3600 nM	5600 nM	12500 nM	16000 nM									
